This is an account of results in patent US20230322846A9, “NEUROACTIVE STEROIDS AND THEIR METHODS OF USE” (SAGE THERAPEUTICS, INC., priority 2018, published 2023).

pIC50: −log10 of the molar value. Some results are limits rather than exact numbers.

For the experiment, the target named is [35S]-TBPS binding, rat brain cortical membranes. Kind of experiment: Steroid inhibition of [35S]-TBPS binding. The following applies: 3 nM [35S]-TBPS, in the presence of 5 mM GABA. How it is done:
[^35S]-t-Butylbicyclophosphorothionate (TBPS) binding assays using rat brain cortical membranes in the presence of 5 mM GABA has been described (Gee et al, J. Pharmacol. Exp. Ther. 1987, 241, 346-353; Hawkinson et al, Mol. Pharmacol. 1994, 46, 977-985; Lewin, A. H et al., Mol. Pharmacol. 1989, 35, 189-194).
Briefly, cortices are rapidly removed following decapitation of carbon dioxide-anesthetized Sprague-Dawley rats (200-250 g). The cortices are homogenized in 10 volumes of ice-cold 0.32 M sucrose using a glass/teflon homogenizer and centrifuged at 1500×g for 10 min at 4° C. The resultant supernatants are centrifuged at 10,000×g for 20 min at 4° C. to obtain the P2 pellets. The P2 pellets are resuspended in 200 mM NaCl/50 mM Na—K phosphate pH 7.4 buffer and centrifuged at 10,000×g for 10 min at 4° C. This washing procedure is repeated twice and the pellets are resuspended in 10 volumes of buffer. Aliquots ([…]) of the membrane suspensions are incubated with 3 nM [^35S]-TBPS and […] aliquots of test drug dissolved in dimethyl sulfoxide (DMSO) (final 0.5%) in the presence of 5 mM GABA. The incubation is brought to a final volume of 1.0 mL with buffer. Nonspecific binding is determined in the presence of […] and ranged from 15 to 25%. Following a 90 min incubation at room temp, the assays are terminated by filtration through glass fiber filters (Schleicher and Schuell No. 32) using a cell harvester (Brandel) and rinsed three times with ice-cold buffer. Filter bound radioactivity is measured by liquid scintillation spectrometry. Non-linear curve fitting of the overall data for each drug averaged for each concentration is done using Prism (GraphPad). […] The concentration of test compound producing 50% inhibition (IC50) of specific binding and the maximal extent of inhibition (Imax) are determined for the individual experiments with the same model used for the overall data and then the means±SEM.s of the individual experiments are calculated.
Various compounds are or can be screened to determine their potential as modulators of [^35S]-TBPS binding in vitro. These assays are or can be performed in accordance with the above
For `C[C@@H](NS(=O)(=O)c1ccccc1)[C@H]1CC[C@H]2[C@@H]3CC[C@@H]4C[C@](C)(O)CC[C@@H]4[C@H]3CC[C@]12C` [Example 18, N—((R)-1-((3R,5R,8R,9R,10S,13S,14S,17S)-3-hydroxy-3,13-dimethylhexadecahydro-1H-cyclopenta[a]phenanthren-17-yl)ethyl)benzenesulfonamide], the pIC50 was over 7.00.
Then `C[C@@H]([C@H]1CC[C@H]2[C@@H]3CC[C@@H]4C[C@](C)(O)CC[C@@H]4[C@H]3CC[C@]12C)N(C)C(=O)c1ccccc1` [Example 19, N—((S)-1-((3R,5R,8R,9R,10S,13S,14S,17S)-3-hydroxy-3,13-dimethylhexadecahydro-1H-cyclopenta[a]phenanthren-17-yl)ethyl)-N-methylbenzamide], with 5.00 to 6.00; and `C[C@H]([C@H]1CC[C@H]2[C@@H]3CC[C@@H]4C[C@](C)(O)CC[C@@H]4[C@H]3CC[C@]12C)N(C)C(=O)c1ccccc1` [Example 20, N-((1R)-1-((3R,5R,9R,10S,13S,14S,17S)-3-hydroxy-3,13-dimethylhexadecahydro-1H-cyclopenta[a]phenanthren-17-yl)ethyl)-N-methylbenzamide], with 6.00 to 7.00; and `C[C@@H]([C@H]1CC[C@H]2[C@@H]3CC[C@@H]4C[C@](C)(O)CC[C@@H]4[C@H]3CC[C@]12C)N(C)S(=O)(=O)c1ccccc1` [Example 21, N—((S)-1-((3R,5R,8R,9R,10S,13S,14S,17S)-3-hydroxy-3,13-dimethylhexadecahydro-1H-cyclopenta[a]phenanthren-17-yl)ethyl)-N-methylbenzenesulfonamide], with 5.00 to 6.00.
Then `C[C@H]([C@H]1CC[C@H]2[C@@H]3CC[C@@H]4C[C@](C)(O)CC[C@@H]4[C@H]3CC[C@]12C)N(C)S(=O)(=O)c1ccccc1` [Example 22, N—((R)-1-((3R,5R,8R,9R,10S,13S,14S,17S)-3-hydroxy-3,13-dimethylhexadecahydro-1H-cyclopenta[a]phenanthren-17-yl)ethyl)-N-methylbenzenesulfonamide], with over 7.00; and `C[C@H](NC(=O)c1ccccc1)[C@H]1CC[C@H]2[C@@H]3CC[C@@H]4C[C@](C)(O)CC[C@@H]4[C@H]3CC[C@]12C` [Example 23, N—((S)-1-((3R,5R,8R,9R,10S,13S,14S,17S)-3-hydroxy-3,13-dimethylhexadecahydro-1H-cyclopenta[a]phenanthren-17-yl)ethyl)benzamide], with 5.00 to 6.00.
For `C[C@@H](NC(=O)c1ccccc1)[C@H]1CC[C@H]2[C@@H]3CC[C@@H]4C[C@](C)(O)CC[C@@H]4[C@H]3CC[C@]12C` [Example 24, N—((R)-1-((3R,5R,8R,9R,10S,13S,14S,17S)-3-hydroxy-3,13-dimethylhexadecahydro-1H-cyclopenta[a]phenanthren-17-yl)ethyl)benzamide] the value was over 7.00; for `C[C@@H](Nc1ccccc1)[C@H]1CC[C@H]2[C@@H]3CC[C@@H]4C[C@](C)(O)CC[C@@H]4[C@H]3CC[C@]12C` [Example 25, (3R,5R,8R,9R,10S,13S,14S,17S)-3,13-dimethyl-17-((R)-1-(phenylamino)ethyl)hexadecahydro-1H-cyclopenta[a]phenanthren-3-ol], over 7.00; for `C[C@H](Nc1ccccc1)[C@H]1CC[C@H]2[C@@H]3CC[C@@H]4C[C@](C)(O)CC[C@@H]4[C@H]3CC[C@]12C` [Example 26, (3R,5R,8R,9R,10S,13S,14S,17S)-3,13-dimethyl-17-((S)-1-(phenylamino)ethyl)hexadecahydro-1H-cyclopenta[a]phenanthren-3-ol], 5.00 to 6.00.
As to `C[C@@H](NC(=O)c1cccnc1)[C@H]1CC[C@H]2[C@@H]3CC[C@@H]4C[C@](C)(O)CC[C@@H]4[C@H]3CC[C@]12C` [Example 29, N—((R)-1-((3R,5R,8R,9R,10S,13S,14S,17S)-3-hydroxy-3,13-dimethylhexadecahydro-1H-cyclopenta[a]phenanthren-17-yl)ethyl)nicotinamide], the pIC50 was 6.00 to 7.00.
For `C[C@H](NC(=O)c1cccnc1)[C@H]1CC[C@H]2[C@@H]3CC[C@@H]4C[C@](C)(O)CC[C@@H]4[C@H]3CC[C@]12C` [Example 30, N—((S)-1-((3R,5R,8R,9R,10S,13S,14S,17S)-3-hydroxy-3,13-dimethylhexadecahydro-1H-cyclopenta[a]phenanthren-17-yl)ethyl)nicotinamide] the value was 5.00 to 6.00; for `COC[C@@]1(O)CC[C@H]2[C@H](CC[C@@H]3[C@@H]2CC[C@]2(C)[C@@H]([C@@H](C)NC(=O)c4ccc(C#N)cn4)CC[C@@H]32)C1` [Example 31, 5-cyano-N—((R)-1-((3R,5R,8R,9R,10S,13S,14S,17S)-3-hydroxy-3-(methoxymethyl)-13-methylhexadecahydro-1H-cyclopenta[a]phenanthren-17-yl)ethyl)picolinamide], 6.00 to 7.00.
For `COC[C@@]1(O)CC[C@H]2[C@H](CC[C@@H]3[C@@H]2CC[C@]2(C)[C@@H]([C@H](C)NC(=O)c4ccc(C#N)cn4)CC[C@@H]32)C1` [Example 32, 5-cyano-N—((S)-1-((3R,5R,8R,9R,10S,13S,14S,17S)-3-hydroxy-3-(methoxymethyl)-13-methylhexadecahydro-1H-cyclopenta[a]phenanthren-17-yl)ethyl)picolinamide], the negative-log IC50 (pIC50) was 5.00 to 6.00.
Then `C[C@@H](Nc1ccc(C#N)cc1)[C@H]1CC[C@H]2[C@@H]3CC[C@@H]4C[C@](C)(O)CC[C@@H]4[C@H]3CC[C@]12C` [Example 33, 4-(((R)-1-((3R,5R,8R,9R,10S,13S,14S,17S)-3-hydroxy-3,13-dimethylhexadecahydro-1H-cyclopenta[a]phenanthren-17-yl)ethyl)amino)benzonitrile], with over 7.00.
Then `COC[C@@]1(O)CC[C@H]2[C@H](CC[C@@H]3[C@@H]2CC[C@]2(C)[C@@H]([C@H](C)Cn4nccc4C#N)CC[C@@H]32)C1` [Example 34, 1-((S)-2-((3R,5R,8R,9R,10S,13S,14S,17R)-3-hydroxy-3-(methoxymethyl)-13-methylhexadecahydro-1H-cyclopenta[a]phenanthren-17-yl)propyl)-1H-pyrazole-5-carbonitrile], with over 7.00; and `COC[C@@]1(O)CC[C@H]2[C@H](CC[C@@H]3[C@@H]2CC[C@]2(C)[C@@H]([C@H](C)Cn4ccc(C#N)n4)CC[C@@H]32)C1` [Example 35, 1-((S)-2-((3R,5R,8R,9R,10S,13S,14S,17R)-3-hydroxy-3-(methoxymethyl)-13-methylhexadecahydro-1H-cyclopenta[a]phenanthren-17-yl)propyl)-1H-pyrazole-3-carbonitrile], with over 7.00.
As for `COC[C@@]1(O)CC[C@H]2[C@H](CC[C@@H]3[C@@H]2CC[C@]2(C)[C@@H]([C@@H](C)Cn4ccc(C#N)n4)CC[C@@H]32)C1` [Example 36, 1-((R)-2-((3R,5R,8R,9R,10S,13S,14S,17R)-3-hydroxy-3-(methoxymethyl)-13-methylhexadecahydro-1H-cyclopenta[a]phenanthren-17-yl)propyl)-1H-pyrazole-3-carbonitrile], the pIC50 is over 7.00.
Then `COC[C@@]1(O)CC[C@H]2[C@H](CC[C@@H]3[C@@H]2CC[C@]2(C)[C@@H]([C@@H](C)Cn4nccc4C#N)CC[C@@H]32)C1` [Example 37, 1-((R)-2-((3R,5R,8R,9R,10S,13S,14S,17R)-3-hydroxy-3-(methoxymethyl)-13-methylhexadecahydro-1H-cyclopenta[a]phenanthren-17-yl)propyl)-1H-pyrazole-5-carbonitrile], with over 7.00; and `C[C@H]([C@H]1CC[C@H]2[C@@H]3CC[C@@H]4C[C@](C)(O)CC[C@@H]4[C@H]3CC[C@]12C)N(C)c1ccccc1` [Example 38, (3R,5R,8R,9R,10S,13S,14S,17S)-3,13-dimethyl-17-((R)-1-(methyl(phenyl)amino)ethyl)hexadecahydro-1H-cyclopenta[a]phenanthren-3-ol], with 6.00 to 7.00.
For `C[C@@H]([C@H]1CC[C@H]2[C@@H]3CC[C@@H]4C[C@](C)(O)CC[C@@H]4[C@H]3CC[C@]12C)N(C)c1ccccc1` [Example 39, (3R,5R,8R,9R,10S,13S,14S,17S)-3,13-dimethyl-17-((S)-1-(methyl(phenyl)amino)ethyl)hexadecahydro-1H-cyclopenta[a]phenanthren-3-ol] the value was 5.00 to 6.00.

Usually pIC50 stands for −log10 of the IC50, conventionally taken in molar units.
